Consider 7 compounds from patent publication US10519169B2, “3-(1H-pyrrolo[2,3-C]pyridin-2-yl)-1 H-pyrazolo[4,3-B]pyridines and therapeutic uses thereof” (Samumed, LLC, priority 2015, dated 2019).

As usually defined, the inhibition is the share of the control response that was lost under treatment.

Experiment [1] concerns primary human fibroblasts derived from IPF patients (LL29 cells) treated with TGF-β1. The experiment can be described thus: Inhibition of fibrotic process, αSMA staining in TGF-β1 treated LL29 fibroblasts. It is filed as cell-based. The settings on record: Fibroblast; for EC50: 96 h, TGF-β1 20 ng/mL, 4 days, % cells positive for αSMA. The method in brief:
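Human IPF-derived LL29 lung fibroblasts in 1% FBS, TGF-β1 20 ng/mL, 11-point compound series, 0.1% DMSO, 4 days at 37 °C. SYTOX-positive cells excluded; % αSMA-positive cells imaged, normalized to TGF-β1/DMSO wells, EC50 by nonlinear fit. Above 10 μM, % inhibition at 10 μM given.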

Experiment [2] relates to primary human mesenchymal stem cells (hMSCs). In words: Chondrogenesis induction in hMSCs (chondrogenic nodules). It is filed as cell-based. The following applies: 144 h, 6 days; for EC50: concentration required to induce 50% levels of chondrogenesis vs TGF-β3, read-out: Conc (nM) of 50% TGF-β3 activity; for Emax: nodules, relative to TGF-β3 positive control (10 ng/mL), read-out: Max. Activity as % TGF-β3 activity. How it is done:
Representative compounds were screened using primary human mesenchymal stem cells (hMSCs) to determine their ability to induce chondrogenesis (process by which cartilage is developed).
Primary human mesenchymal stem cells (hMSCs) were purchased from Lonza (Walkersville, Md.) and expanded in Mesenchymal Stem Cell Growth Media (Lonza). Cells between passage 3 and 6 were used for the experiments.
Each compound was dissolved in DMSO as a 10 mM stock and used to prepare compound source plates. Serial dilution (1:3, 6-point dose-response curves from 2700 nM to 10 nM) and compound transfer was performed using the ECHO 550 (Labcyte, Sunnyvale, Calif.) into 96-well clear bottom assay plates (Greiner Bio-One) with appropriate DMSO backfill for a final DMSO concentration of 0.03%. hMSCs were plated at 20,000 cells/well in 250 μL/well Incomplete Chondrogenic Induction Medium (Lonza; DMEM, dexamethasone, ascorbate, insulin-transferrin-selenium [ITS supplement], gentamycin-amphotericin [GA-1000], sodium pyruvate, proline and L-glutamine). TGF-03 (10 ng/mL) was used as a positive control for differentiation while negative control wells were treated with 75 nL DMSO for normalization and calculating EC50 values. Cells were incubated at 37° C. and 5% CO2 for 6 days. To image chondrogenic nodules, the cells were fixed using 4% formaldehyde (Electron Microscopy Sciences), and stained with 2 μg/mL Rhodamine B (Sigma-Aldrich) and 20 μM Nile Red (Sigma-Aldrich) [Johnson K., et. al, A Stem Cell-Based Approach to Cartilage Repair, Science, (2012), 336(6082), 717-721]. The nodules imaged (4 images per well at 4× magnification) by excitation at 531 nm and emission at 625 nm and quantified using the CellInsight CX5 (Thermo Scientific). Number of nodules in each well was normalized to the average of 3 DMSO treated wells on the same plate using Excel (Microsoft Inc.). The normalized averages (fold change over DMSO) of 3 replicate wells for each compound concentration were calculated. Due to solubility limitations of some of the compounds, curve fitting was incomplete leading to inaccurate EC50 determinations.
Using TGF-β3 as a positive control, the concentration of representative compounds required to induce 50% levels of chondrogenesis is reported. In addition, the maximum activity of each compound and the respective dose that each compound reached maximum chondrogenesis activity is reported.

For the compound `Cc1ccncc1-c1ccc2[nH]nc(-c3cc4c(-c5cc(F)cc(CNS(C)(=O)=O)c5)cncc4[nH]3)c2n1` [Compound 481, N-(3-Fluoro-5-(2-(5-(4-methylpyridin-3-yl)-1H-pyrazolo[4,3-b]pyridin-3-yl)-1H-pyrrolo[2,3-c]pyridin-4-yl)benzyl)methanesulfonamide], the EC50 in experiment [1] is 262 nM; in experiment [2], 10 nM. In addition, the Emax in experiment [2] turned out to be 87%.
`CS(=O)(=O)NCc1cc(F)cc(-c2cncc3[nH]c(-c4n[nH]c5ccc(-c6cncc(CN7CCCCC7)c6)nc45)cc23)c1` [Compound 491, N-(3-Fluoro-5-(2-(5-(5-(piperidin-1-ylmethyl)pyridin-3-yl)-1H-pyrazolo[4,3-b]pyridin-3-yl)-1H-pyrrolo[2,3-c]pyridin-4-yl)benzyl)methanesulfonamide] had an EC50 in experiment [1] of 1220 nM. Further, in experiment [2], the EC50 is 10 nM and the Emax was 83%.
Compound `CS(=O)(=O)NCc1cc(F)cc(-c2cncc3[nH]c(-c4n[nH]c5ccc(-c6cncnc6)nc45)cc23)c1` [Compound 503, N-(3-Fluoro-5-(2-(5-(pyrimidin-5-yl)-1H-pyrazolo[4,3-b]pyridin-3-yl)-1H-pyrrolo[2,3-c]pyridin-4-yl)benzyl)methane sulfonamide] showed an EC50 in experiment [1] of 2210 nM. Also, in experiment [2], the EC50 stood at 10 nM and the Emax is 106%.
On to `CS(=O)(=O)NCc1cc(F)cc(-c2cncc3[nH]c(-c4n[nH]c5ccc(-c6ccccn6)nc45)cc23)c1` [Compound 504, N-(3-Fluoro-5-(2-(5-(pyridin-2-yl)-1H-pyrazolo[4,3-b]pyridin-3-yl)-1H-pyrrolo[2,3-c]pyridin-4-yl)benzyl)methanesulfonamide], for which the results for the EC50 in experiment [1] and in experiment [2] were 3670 nM and 300 nM, respectively. The Emax in experiment [2] came out at 99%.
In turn, `Fc1cccc(-c2cncc3[nH]c(-c4n[nH]c5ccc(C6CCNCC6)nc45)cc23)c1` [Compound 505, 3-(4-(3-Fluorophenyl)-1H-pyrrolo[2,3-c]pyridin-2-yl)-5-(piperidin-4-yl)-1H-pyrazolo[4,3-b]pyridine] had an EC50 in experiment [1] of over 10000 nM. Also, the inhibition at 10 µM in experiment [1] (given for EC50 >10 μM, TGF-β1, αSMA, 10 μM, read-out: percent inhibition at 10 μM) was found to be 0%. In addition, in experiment [2], the EC50 stood at 2700 nM and the Emax worked out at 103%.
On to `Fc1ccccc1-c1cncc2[nH]c(-c3n[nH]c4ccc(-c5cn[nH]c5)nc34)cc12` [Compound 539, 3-(4-(2-Fluorophenyl)-1H-pyrrolo[2,3-c]pyridin-2-yl)-5-(1H-pyrazol-4-yl)-1H-pyrazolo[4,3-b]pyridine], for which, in experiment [1], the EC50 came to 2310 nM. The Emax in experiment [2] worked out at 40%.
Take `Cn1cc(-c2ccc3[nH]nc(-c4cc5c(-c6cccnc6)cncc5[nH]4)c3n2)cn1` [Compound 556, 5-(1-Methyl-1H-pyrazol-4-yl)-3-(4-(pyridin-3-yl)-1H-pyrrolo[2,3-c]pyridin-2-yl)-1H-pyrazolo[4,3-b]pyridine]: in experiment [1], the EC50 worked out at 3020 nM. In addition, in experiment [2], the EC50 came to 10 nM and the Emax worked out at 52%.
